Several values for one entry are separate records, joined by “and”; a condition that tells them apart may be missing. Equal values may be shown once.
Experiments:
[1] = test system: MDCK2 cells (kidney epithelial); experiment: MDCK2 cell proliferation assay (MTT, 72 h); type: cell-based, dog
Procedure: (§1) BAE cells were from Cell Applications, San Diego, Calif. and BxPC-3, HT1080, LLC, PANC-1, MCF-7, HCT116 and K562 cells were from ATCC, Bethesda, Md. NB4 and MDCK2 cells were from Shane Supple (Kanematsu Laboratories, Royal Prince Alfred Hospital, Sydney, Australia) and P. Borst (The Netherlands Cancer Institute, Amsterdam, The Netherlands). BAE, HT1080, Panc-1, MCF-7, HCT116, MDCK2 and LLC cells were cultured in DMEM. NB4, K562 and BxPC-3 cells were cultured in RPMI medium. The cells were supplemented with 10% foetal calf serum (FBS), 2 mM L-glutamine, and 1 U·mL-1 penicillin/streptomycin. Cell culture plasticware was from Techno Plastic Products (Trasadingen, Switzerland). All other cell culture reagents were from Gibco (Gaithersburg, Md.).
(§2) Adherent cells were allowed to adhere overnight.

[2] = test system: BAE cells; experiment: BAE cell proliferation assay (MTT, 72 h); type: cell-based, bovine
Procedure: as §1, §2

[3] = test system: MEF3.8 cells over-expressing BCRP; conditions: MEF/BCRP; 96 h; relative to IC50 of non-transfected parental cells
Procedure: (§3) Transfectants of the Madin-Darby canine kidney II (MDCKII) polarised epithelial cell line, over-expressing multidrug resistance-associated proteins (MRP) 1, 2 or 3, have been described (Evers et al., 2000; Kool et al., 1999), as have the MEF/MDR1 clone H4 over-expressing human MDR1 or BCRP (Dilda et al., 2005b). Cells were grown and maintained as adherent monolayers in DMEM containing 10% calf serum (Cosmic™, Hyclone, Tauranga, New Zealand), 100 μg·mL^−1 penicillin and 60 μg·mL^−1 streptomycin. Cytotoxicity assays were performed as described previously (Allen et al., 1999).
(§4) Mammalian cells over-expressing MRP1, 2, 3 or 6, or MDR1 or BCRP were tested for resistance to (S)-Penicillamine-arsenoxide. MRP1, MRP2 or MRP3 was over-expressed in the canine kidney epithelial MDCKII cell line, while MRP6, MDR1 or BCRP was over-expressed in the murine embryo fibroblast MEF3.8 line. Cells were exposed to the indicated concentrations of (S)-Penicillamine-arsenoxide for 96 h and the number of viable cells measured and expressed relative to the number of untreated cells. Resistance factor is calculated relative to the (S)-Penicillamine arsenoxide IC50 for proliferation arrest of non-transfected parental cells.

[4] = test system: MDCKII cells over-expressing MRP3; conditions: MD/MRP3; 96 h; relative to IC50 of non-transfected parental cells
Procedure: as §3, §4

[5] = test system: MEF3.8 cells over-expressing MRP6; conditions: MEF/MRP6; 96 h; relative to IC50 of non-transfected parental cells
Procedure: as §3, §4

[6] = test system: MDCKII cells over-expressing MRP1; conditions: MD/MRP1; 96 h; relative to IC50 of non-transfected parental cells
Procedure: as §3, §4

[7] = test system: MRP1/2; experiment: Effect of MRP1/2 inhibitors 4H10 and MK-571 on accumulation and anti-proliferative activity in BAE cells
Procedure: The data points and error bars are the mean±SD of quadruplicate determinations and is representative of two experiments. […] The MRP inhibitors were incubated for 30 min with the cells prior to incubation with (S)-Penicillamine-arsenoxide for 72 h. The data points and error bars are the mean±SD of triplicate determinations. *** is p<0.001, ** is p<0.01
BAE, NB4, K562, MDCK2, HT1080, LLC, HCT116, Panc-1, MCF-7 and BxPC-3 cells were seeded at a density of 1.5×10^3, 3×10^3, 4×10^3, 5×10^2, 2×10^3, 5×10^2, 5×10^2, 6×10^3, 6×10^3 and 1×10^4 cells per well, respectively, into 96-well plates. Adherent cells were allowed to adhere overnight. They were then cultured for 72 h in medium containing 10% fetal calf serum and (S)-Penicillamine-arsenoxide. Viable cells were determined by incubating cells with the tetrazolium salt MTT (Sigma, St. Louis, Mo.), which is metabolized by viable cells to form insoluble purple formazan crystals. DMSO was added to lyse cells, the contents of the wells were homogenized and the absorbance measured at 550 nm. Cell number in the untreated control was normalized as 100%, and viable cell number for all treatments was expressed as percentage of control. The cytotoxic effects of (S)-Penicillamine-arsenoxide were assayed by flow cytometry with propidium iodide. BAE cells were seeded at a density of 5×10^4 cells per well into 12-well plates, allowed to adhere overnight, then treated for 48 h with GSAO. […] The combined cells were pelleted, resuspended in 0.5 mL serum-free medium containing 1 μg·mL^−1 propidium iodide (Molecular Probes, Eugene, Oreg.) and analysed by flow cytometry.
BAE cells were seeded at a density of 1.5×10^6 cells in Petri dishes and allowed to adhere overnight. Cells were incubated with 50 μM (S)-Penicillamine-arsenoxide at discrete times for up to 2 h at 37° C. and then washed three times with ice-cold PBS. The washed cells were lysed in 1 mL of 70% w/w nitric acid. […] Samples were diluted 10-fold and analysed for arsenic atoms using an Elan 6100 Inductively Coupled Plasma Spectrometer (Perkin Elmer Sciex Instruments, Shelton, Conn.).

[8] = test system: human BxPC-3 pancreatic carcinoma tumours; experiment: Primary tumor growth assay, BxPC-3 tumours in BalbC nude mice; type: in vivo, mouse; conditions: for tumour doubling time: subcutaneous micro-osmotic pump, 28 day
Procedure: Female 7 to 9 week old Balb C nude mice were used (UNSW Biological Resource Centre). Mice were held in groups of 3 to 5 at a 12 h day and night cycle and were given animal chow and water ad libidum. A suspension of 2×10^6 BxPC-3 cells in 0.2 mL of PBS was injected subcutaneously in the proximal midline. Tumors were allowed to establish and grow to a size of ˜50 mm^3 after which they were randomized into four groups. Tumor volume was calculated using the relationship length×height×width×0.523. Tumor doubling time (TD) was calculated from the tumor growth rate curve during exponential growth using the formula […], where VF is final tumor volume and VI is initial tumor volume (Wolff et al., 2004). Animals were implanted with 28 day alzet model 1004 micro-osmotic pumps (ALZA Corporation, Palo Alto, Calif.) subcutaneously in the flank. The pumps delivery 0.25, 0.5 or 1 mg/kg/day (S)-Penicillamine arsenoxide in 100 mM glycine. Tumor volume and animal weight was measured every 2 or 3 days.
BalbC nude mice bearing subcutaneous human BxPC-3 pancreatic carcinoma tumours in the proximal midline were implanted with 28 day micro-osmotic alzet pumps subcutaneously in the flank. The pumps delivered 0.25, 0.5 or 1 mg per kg per day (S)-Penicillamine arsenoxide. […] The tumour doubling times are 9.2, 8.3, 13.9 and 16.2 days for groups treated with vehicle (100 mM glycine) or 0.25, 0.5 and 1 mg/kg/day (S)-Penicillamine arsenoxide, respectively.

[9] = test system: isolated rat liver mitochondria; experiment: Mitochondrial swelling assay (mitochondrial permeability transition); type: biochemical; conditions: 100 μM
Procedure: Mitochondria were isolated from the livers of ˜250 g male Wistar rats using differential centrifugation as previously described (Dilda et al., 2005a; Don et al., 2003). The final mitochondrial pellet was resuspended in 3 mM HEPES-KOH, pH 7.0 buffer containing 213 mM mannitol, 71 mM sucrose and 10 mM sodium succinate at a concentration of 30 mg of protein per mL. Mitochondrial permeability transition induction was assessed spectrophotometrically by suspending the liver mitochondria at 0.5 mg of protein per mL at 25° C. in 3 mM HEPES-KOH, pH 7.0 buffer containing 75 mM mannitol, 250 mM sucrose, 10 mM sodium succinate, and 2 μM rotenone. Swelling was measured by monitoring the associated decrease in light scattering at 520 nm using a SpectraMax Plus microplate reader (Molecular Devices, Palo Alto, Calif.).

[10] = test system: BAE cells; experiment: BAE proliferation with glutathione depletion by BSO; type: cell-based, bovine; conditions: BAE cells co-treated with BSO, 72 h
Procedure: FIG. 12. Depletion of cellular glutathione increases (S)-Penicillamine-arsenoxide anti-proliferative activity. BAE cells were co-treated with (S)-Penicillamine-arsenoxide and the indicated concentrations of BSO for 72 h and the IC50 for proliferation arrest was calculated.
Treatment of BAE cells with glutathione reduced GSAO inhibition of BAE cell proliferation, while blocking de novo synthesis of glutathione with buthionine sulfoximine (BSO), an inhibitor of the γ-glutamyl cysteine synthase, enhanced the proliferation arrest by almost 100-fold (Dilda et al., 2005b).

In the case of `CC(C)(SCC(=O)Nc1ccc([As](O)O)cc1)[C@@H](N)C(=O)O` [(S)-Penicillamine-arsenoxide, 4-(N—(S-penicillaminylacetyl)amino)phenylarsinous acid], the “sensitivity of BAE cells relative to kidney epithelial cells” value ([1]; BAE vs MDCK2) is reported as 5.6 fold, the IC50 ([1]; MDCK2, dog kidney epithelial, read-out: IC50 for proliferation arrest) is reported as 2400 nM and the “times more effective than GSAO at blocking proliferation and reducing the viability of endothelial cells” value [2] is reported as about 25 times. The IC50 ([2]; 72 h, read-out: IC50 for proliferation arrest) was 400 nM and 430 nM, the “Resistance Factor” value [3] was 1.1 and the “Resistance Factor” value [4] was 0.8. For the same compound, the “Resistance Factor” value [5] was 1.3, the “Resistance Factor” value [6] was 3.7 and the “substrate status for MRP1/2” value [7] was “substrate for MRP1/2”. The “anti-proliferative effect in presence of MRP1/2 inhibitors” value ([7]; 0.3 μM compound, 4H10 2 μM or MK-571 15 μM, 72 h) was “more potent anti-proliferative effect”, the “accumulation in presence of MRP1/2 inhibitors 4H10 and MK-571” value ([7]; 50 μM compound, 4H10 5 μM or MK-571 25 μM) was “More (S)-Penicillamine-arsenoxide accumulated in BAE cells” and the tumour doubling time ([8]; 0.25 mg/kg/day) was 8.3 days. The tumour doubling time ([8]; 0.5 mg/kg/day) was 13.9 days, the tumour doubling time ([8]; 1 mg/kg/day) was 16.2 days and the “growth of the BxPC-3 tumours” value ([8]; 0.25, 0.5 or 1 mg per kg per day) was “significantly inhibited”. The “accumulation of connective tissue, mice affected” value ([8]; highest dose animals) was 1 mouse, the “skin necrosis at the delivery site, mice affected” value ([8]; highest dose animals) was 3 of the 10 and the “skin toxicity at pump delivery site” value ([8]; highest dose animals (1 mg/kg/day)) was “some skin toxicity at the pump delivery site”. The “findings at delivery site at the lower doses” value ([8]; lower doses) was “some evidence of accumulation of connective tissue at the delivery site in the occasional mouse”, the “animal weight versus vehicle” value ([8]; not shown) was “no change in the weight” and the “time for half-maximal swelling of isolated mitochondria, times faster compared to GSAO” value [9] was “approximately 4 times”. For the same compound, the “enhancement of IC50 for proliferation arrest by BSO” value [10] was “approximately 25 fold”.

Reference: patent US9765101B2, “Organo-arsenoxide compounds and use thereof” (NewSouth Innovations Pty Limited, priority 2006, dated 2017)
